Results from patent US20240400545A1, “COMPOUND SERVING AS KAT6 INHIBITOR” (Hangzhou Innogate Pharma Co., Ltd., priority 2021, published 2024).
Like-named read-outs stand apart in the source and are kept apart here.

Experiments:
[1] = Pharmacokinetic study in rats (intragastrical administration); conditions: plasma
Protocol: (§1) All measurement data were collected and processed by Masslynx V4.1 software, and the data were calculated and processed by Microsoft Excel. The statistical moment method of WinNonLin 8.0 software was used to calculate the pharmacokinetic parameters. These mainly include kinetic parameters Tmax, T1/2, Cmax, AUC0-24 h etc. Column: ACQUITY UPLC BEH C18 (2.1 mm×50 mm, 1.7 μm); column temperature 40° C.; mobile phase A is water (0.1% formic acid), mobile phase B is acetonitrile, flow rate is 0.350 mL/min, gradient elution is adopted, the elution gradient is 0.50 min: 10% B; 1.50 min: 90% B; 2.50 min: 90% B; 2.51 min: 10% B; 3.50 min: stop. Injection volume: 1 μL.
(§2) Animals: 3 male SD rats with a weight range of 200-220 g were purchased and kept in the laboratory of the Experimental Animal Center for 2 days and then used. They were fasted for 12 hours predose and 4 hours after dosing. Drinking water was free during the test. After the rats were gavage, blood samples were taken according to the established time point.
(§3) Solvent: 0.4% ethanol+0.4% Tween80+99.2% (0.5% methylcellulose M450). Preparation of the solution for intragastrical administration: the compounds were accurately weighed and added to the solvent, and ultrasound was used at room temperature for 5 minutes to completely dissolve the drug, and a 0.3 mg/mL medicinal solution was prepared.
(§4) A single administration was also used to study the pharmacokinetics of the drug sample in rats.
(§5) After intragastrical administration, blood was taken from the orbit at 0.25, 0.5, 1, 2, 4, 8, 10 and 24 hours. Then 50 μL of the plasma sample was taken and added 200 μL of acetonitrile (including internal standard control verapamil 2 ng/mL), vortexed for 3 min and centrifuged at 20000 rcf, 4° C. for 10 min. The supernatant plasma was used for LC-MS/MS analysis.
(§6) The compounds were accurately weighed to prepare different concentrations, and quantitative analysis on mass spectrometry was performed to establish a standard curve, and then the concentration of the above-mentioned compound in the plasma was tested to obtain its concentration at different time points. All measurement data were collected and processed by relevant software, and the statistical moment method was used to calculate the pharmacokinetic parameters (mainly including kinetic parameters Tmax, T1/2, Cmax, AUC0-24 h etc).

[2] = target: KAT6A enzyme (catalytic domain) (Homo sapiens (Human), UniProt Q92794); test: Inhibition of KAT6A enzyme activity ([3H]-acetyl-CoA / H3 (1-21) peptide, Flashplate); type: biochemical; conditions: for inhibition at 0.011 µM: KAT6A, compound concentration 11 nM, read-out: Inhibition % of compounds at the concentration of 11 nM; for IC50: KAT6A catalytic domain, [3H]-acetyl-CoA, substrate peptide H3 (1-21)
Chain of KAT6A enzyme (catalytic domain) (Q92794 504-778): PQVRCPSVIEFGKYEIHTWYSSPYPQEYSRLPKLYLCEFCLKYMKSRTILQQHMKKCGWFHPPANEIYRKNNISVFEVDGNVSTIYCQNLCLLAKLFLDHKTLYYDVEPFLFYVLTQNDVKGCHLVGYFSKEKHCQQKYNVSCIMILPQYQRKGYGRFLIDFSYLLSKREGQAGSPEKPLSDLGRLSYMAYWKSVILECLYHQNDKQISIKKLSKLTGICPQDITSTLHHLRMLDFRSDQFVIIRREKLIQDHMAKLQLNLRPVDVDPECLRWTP
Protocol: No. […] The plate was incubated at room temperature for 1 hour. 10 μL of the stop solution was added to terminate the reaction. 25 μL of the reaction solution was transferred to a Flashplate (Perkin Elmer, Cat. No. […]) and incubated at room temperature for 1 hour. The plate was read using Microbeta. The inhibition rate of the compounds was calculated using the formula of Excel: inhibition %=(Max-Signal)/(Max-Min)*100%. Where max is the value of the DMSO control, min is the value of the non-enzymatic control, and signal is the value of the well where the compound was tested. The curve was fitted using XLFit software and IC50 was calculated.

[3] = rat, in vivo, po, 3 mg/kg
Protocol: as §1, §2, §3, §4, §5, §6

[4] = male SD rats, intragastrical, 1.5 mg/Kg

AUC(0-t) ([1]; male, SD, rat, po, 3 mg/kg) [ng·h/mL] | Cmax ([1]; male, SD, rat, po, 3 mg/kg) [ng/mL] | Tmax ([1]; male, SD, rat, po, 3 mg/kg) [h] | half-life ([1]; male, SD, rat, po, 3 mg/kg) [h] | Structure (SMILES) | IC50 [2] [nM] | other results
82200 | 4830 | 2 | 24.6 | COc1cc(C#CC2CC2)ccc1S(=O)(=O)Nc1noc2cc(Cn3cccn3)cc(OC)c12 [Compound 12] | – | –
– | – | – | – | C#Cc1ccc(S(=O)(=O)Nc2noc3cc(Cn4cccn4)cc(OC)c23)c(OC)c1 [Compound 11] | – | AUC(0-t) ([1]; male, SD, rat, po, 2 mg/kg): 53700 ng·h/mL; Cmax ([1]; male, SD, rat, po, 2 mg/kg): 6380 ng/mL; Tmax ([1]; male, SD, rat, po, 2 mg/kg): 1.33 h; half-life ([1]; male, SD, rat, po, 2 mg/kg): 5.29 h
45300 | 2790 | 2.67 | 14.4 | CC#Cc1ccc(S(=O)(=O)Nc2noc3cc(Cn4cccn4)cc(OC)c23)c(OC)c1 [Compound 16] | – | –
32500 | 2120 | 3.33 | 7.85 | COc1cc(C#CC2CC(F)(F)C2)cc(OC)c1S(=O)(=O)Nc1noc2cc(Cn3cccn3)cc(OC)c12 [Compound 15] | – | –
3120 | 229 | 2.67 | 3.17 | COc1cc(N2CCC2)ccc1S(=O)(=O)Nc1noc2cc(Cn3cccn3)cc(OC)c12 [Compound 17] | – | inhibition at 0.011 µM [2]: 75%
– | – | – | – | COc1ccc(N2CCC2)cc1S(=O)(=O)Nc1noc2cc(Cn3cccn3)cc(OC)c12 [Compound 2] | < 10 | –
– | – | – | – | C#Cc1cc(OC)c(S(=O)(=O)Nc2noc3cc(Cn4cccn4)cc(OC)c23)c(OC)c1 [Compound 4] | < 5 | AUC0-24h [3]: 109958.71 ng·h/mL; Cmax [3]: 6737.13 ng/mL; T1/2 [3]: 8.04 h; Tmax [3]: 9.33 h
5960 | 428 | 3.33 | 6.62 | COc1cc(C#CC2COC2)cc(OC)c1S(=O)(=O)Nc1noc2cc(Cn3cccn3)cc(OC)c12 [Compound 14] | – | inhibition at 0.011 µM [2]: 67%
– | – | – | – | COc1ccc(OC2CCC2)cc1S(=O)(=O)Nc1noc2cc(Cn3cccn3)cc(OC)c12 [Compound 1] | < 5 | AUC0-24h [1, 4]: 4481.07 ng·h/mL; Cmax [1, 4]: 392.76 ng/mL; T1/2 [1, 4]: 2.66 h; Tmax [1, 4]: 3.00 h
